Measurements as given in US8158587B2, “Compound having histone deacetylase-inhibiting activity, and pharmaceutical composition comprising the compound as an active ingredient” (Kyushu Institute of Technology, priority 2006, dated 2012).

Columns and labels:
[1] = target: T1, human HDAC1 (Homo sapiens, UniProt Q13547); assay: HDAC-inhibiting activity, coumarin-labeled acetylated histone peptide assay; type: biochemical; settings: human HDAC1 from transfected 293T cells; 37° C., 30 minutes
T1 construct: made in house; host or cells: 293T cells (transient transfection, anti-FLAG immunoprecipitation, FLAG peptide elution)
Procedure: (§1) In carrying out HDAC-inhibiting activity measurements, HDAC solutions were prepared in the following manner. In each 100-mm dish, there were sowed 1×10^7 293T cells and, after 24 hours, they were transfected with a vector (5 μg) expressing human HDAC1 or HDAC4 or murine HDAC6 using the LipofectAmine 2000 reagent (Invitrogen). The human HDAC1 expression vector used was pcDNA3-HD1 (Yang, W. M., Yao, Y. L., Sun, J. M., Davie, J. R. & Seto, E. (1997) J. Biol. Chem. 272, 28001-28007), the human HDAC4 expression vector used was pcDNA3-HD4 (Fischle, W., Emiliani, S., Hendzel, M. J., Nagase, T., Nomura, N., Voelter, W. & Verdin, E. (1999) J. Biol. Chem. 274, 11713-11720), and the murine HDAC6 expression vector used was pcDNA3-mHDA2/HDAC6 (Verdel, A. & Khochbin, S. (1999) J. Biol. Chem. 274, 2440-2445).
(§2) After 24 hours of incubation, cells were recovered, washed with PBS, suspended in lysis buffer (50 mM Tris-HCl (pH 7.5), 120 mM NaCl, 5 mM EDTA, 0.5% Nonidet P-40), and sonicated. The supernatant was collected by centrifugation and then deprived of nonspecific proteins using Protein A/G plus agarose beads (Santa Cruz Biotechnologies, Inc.). Thereafter, anti-FLAG M2 antibody (Sigma-Aldrich Inc.) was added, and the reaction was allowed to proceed at 4° C. for 2 hours.
(§3) To this were added agarose beads, the reaction was allowed to proceed at 4° C. for 3 hours, and the agarose beads were washed three times with lysis buffer and then once with HD buffer (20 mM Tris-HCl (pH 8.0), 150 mM NaCl, 10% glycerol). The protein bound to the agarose beads was recovered by 1 hour of incubation with FLAG peptide (40 μg) (Sigma-Aldrich Inc.) in HD buffer (200 μl) at 4° C., and the liquid recovered was used, as a reactant solution, in the HDAC-inhibiting activity measurement described below.
(§4) HDAC-inhibiting activity evaluation in each in vitro system was made as follows. Each test compound was dissolved in DMSO, a stock solution with a concentration of 10 mM was thus prepared and this was used as an inhibitor stock solution. The assay was carried out by incubating the HDAC solution and a coumarin-labeled acetylated histone peptide solution in the presence of the test compound at 37° C. for 30 minutes (reaction volume 20 μl). To the reaction mixture was added 30 μl of trypsin, and the aminomethylcoumarin released by the enzymatic reaction was assayed using a fluorescent plate reader. In a negative control assay, no inhibitor was added to the reaction system and the same procedure was carried out.

[2] = target: T2, murine HDAC6 (Mus musculus, UniProt Q9Z2V5); assay: as above; type: biochemical; settings: murine HDAC6 from transfected 293T cells; 37° C., 30 minutes
T2 construct: made in house; host or cells: 293T cells (transient transfection, anti-FLAG immunoprecipitation, FLAG peptide elution)
T2 sequence (Q9Z2V5 1-1149): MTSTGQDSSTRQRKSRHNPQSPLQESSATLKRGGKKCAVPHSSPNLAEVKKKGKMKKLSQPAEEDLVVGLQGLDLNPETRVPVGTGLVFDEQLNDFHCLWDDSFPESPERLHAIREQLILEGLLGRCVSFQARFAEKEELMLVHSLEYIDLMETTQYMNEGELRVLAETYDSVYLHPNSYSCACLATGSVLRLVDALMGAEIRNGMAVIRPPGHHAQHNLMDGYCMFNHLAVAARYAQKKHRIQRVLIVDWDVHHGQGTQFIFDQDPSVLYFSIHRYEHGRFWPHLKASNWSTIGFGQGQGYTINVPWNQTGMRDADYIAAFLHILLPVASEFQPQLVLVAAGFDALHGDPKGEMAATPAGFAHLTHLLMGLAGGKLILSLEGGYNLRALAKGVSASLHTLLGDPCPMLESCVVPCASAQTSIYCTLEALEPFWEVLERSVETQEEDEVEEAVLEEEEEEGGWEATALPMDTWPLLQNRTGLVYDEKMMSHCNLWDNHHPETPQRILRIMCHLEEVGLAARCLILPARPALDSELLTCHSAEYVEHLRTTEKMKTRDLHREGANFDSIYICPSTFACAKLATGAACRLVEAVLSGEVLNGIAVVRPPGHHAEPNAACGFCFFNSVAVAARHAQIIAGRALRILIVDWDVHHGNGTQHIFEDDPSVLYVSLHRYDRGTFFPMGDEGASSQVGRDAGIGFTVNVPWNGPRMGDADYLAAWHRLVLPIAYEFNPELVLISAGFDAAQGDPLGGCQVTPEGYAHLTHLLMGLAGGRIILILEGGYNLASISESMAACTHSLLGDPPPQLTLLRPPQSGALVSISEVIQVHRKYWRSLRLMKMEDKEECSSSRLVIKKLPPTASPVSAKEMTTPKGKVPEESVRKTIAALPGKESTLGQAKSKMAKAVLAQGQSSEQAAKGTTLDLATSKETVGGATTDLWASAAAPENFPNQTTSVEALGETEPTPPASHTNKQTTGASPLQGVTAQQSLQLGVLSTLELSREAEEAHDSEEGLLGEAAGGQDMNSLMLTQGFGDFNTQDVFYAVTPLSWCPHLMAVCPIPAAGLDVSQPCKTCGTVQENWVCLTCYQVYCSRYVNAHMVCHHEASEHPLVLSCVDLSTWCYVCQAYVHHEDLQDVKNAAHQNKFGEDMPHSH
Procedure: as §1, §2, §3, §4

[3] = target: T3, human HDAC4 (Homo sapiens, UniProt P56524); assay: as above; type: biochemical; settings: human HDAC4 from transfected 293T cells; 37° C., 30 minutes; read-out: HDAC-inhibiting activity IC50 HDAC4
T3 construct: made in house; host or cells: 293T cells (transient transfection, anti-FLAG immunoprecipitation, FLAG peptide elution)
Procedure: In carrying out HDAC-inhibiting activity measurements, HDAC solutions were prepared in the following manner. […] The human HDAC1 expression vector used was pcDNA3-HD1 (Yang, W. M., Yao, Y. L., Sun, […]. & Seto, E. (1997) J. Biol. Chem. 272, 28001-28007), the human HDAC4 expression vector used was pcDNA3-HD4 ([…]., Nagase, […]. Biol. Chem. 274, 11713-11720), and the murine HDAC6 expression vector used was pcDNA3-mHDA2/HDAC6 ([…]. Biol. Chem. 274, 2440-2445). After 24 hours of incubation, cells were recovered, washed with PBS, suspended in lysis buffer (50 mM Tris-HCl (pH 7.5), 120 mM NaCl, 5 mM EDTA, 0.5% Nonidet P-40), and sonicated. The supernatant was collected by centrifugation and then deprived of nonspecific proteins using Protein A/G plus agarose beads (Santa Cruz Biotechnologies, Inc.). Thereafter, anti-FLAG M2 antibody (Sigma-Aldrich Inc.) was added, and the reaction was allowed to proceed at 4° C. for 2 hours. To this were added agarose beads, the reaction was allowed to proceed at 4° C. for 3 hours, and the agarose beads were washed three times with lysis buffer and then once with HD buffer (20 mM Tris-HCl (pH 8.0), 150 mM NaCl, 10% glycerol). […] HDAC-inhibiting activity evaluation in each in vitro system was made as follows. Each test compound was dissolved in DMSO, a stock solution with a concentration of 10 mM was thus prepared and this was used as an inhibitor stock solution. The assay was carried out by incubating the HDAC solution and a coumarin-labeled acetylated histone peptide solution in the presence of the test compound at 37° C. for 30 minutes (reaction volume 20 μl). To the reaction mixture was added 30 μl of trypsin, and the aminomethylcoumarin released by the enzymatic reaction was assayed using a fluorescent plate reader. In a negative control assay, no inhibitor was added to the reaction system and the same procedure was carried out.

[4] = system: human wild type p21 promoter; assay: p21 promoter assay (luciferase) in MFLL-9 cells; type: cell-based; settings: 20 hours, concentration giving 1000% luminescence relative to negative control (100%)
Procedure: As an HDAC-inhibiting activity in an […] system, the following measurement was carried out using the p21 promoter inducing activity as an index. MFLL-9 cells used in the experiment are cells stably retaining a fusion gene (Dr. B. Vogelstaein) from the human wild type p21 promoter and luciferase gene. They were cultured using phenol red-free DMEM supplemented with 10% FBS in a steam-saturated incubator at 37° C. in the presence of 5% carbon dioxide. These MFLL-9 cells were sowed onto a 96-well microplate at a cell density of 2×10^4 cells/well and, after 24 hours of cultivation in 99 μl, per well, of the medium mentioned above, each test compound solution was added, followed by 20 hours of incubation. […] In a negative control, the same procedure was carried out without adding any inhibitor to the reaction system.
Using Luciferase Assay Reagent (Promega), the intensity of the luminescence due to the product of the enzymatic reaction involving luciferase expressed within cells was measured.

[5] = system: lung cancer cell line NCI-H522; assay: Human cancer cell line panel, proliferation (sulforhodamine B); type: cell-based; settings: NCI-H522, 2 days of cultivation; read-out: 50% inhibitory concentration, proliferation
Text: (§5) The characteristics of the human cancer cell proliferation-inhibiting activity of the compounds of the present invention were examined by the “method of evaluating the mechanisms of action of compounds using a panel of human cancer cell lines” as proposed by Yamori et al. (cf. Gan to Kagaku Ryoho (Cancer and Chemotherapy) 29 Suppl. II (2002) and Cancer Chemother. Pharmacol. 52 Suppl. I, S74-79 (2003)).
(§6) This system includes […] (7 lung cancer, 6 stomach cancer, 5 colon cancer, 5 ovarian cancer, 6 brain tumor, […], 2 kidney cancer and 2 prostate cancer cell lines as well as one melanoma line) and the method comprises measuring the in vitro drug susceptibilities of those cancer cell lines and expressing the differences in drug susceptibility among the respective cancer cell lines as a fingerprint. […] By utilizing this property, it is possible to estimate the mechanisms of action of a compound. The above method is also characterized in that an anticancer substance showing new and unique mechanisms of action different from those of the existing anticancer agents can be selected.
(§7) Cancer cells of each cell line are sowed onto a 96-well plate, a sample solution is added on the next day and, after 2 days of cultivation, the cell proliferation is measured by colorimetry using sulforhodamine B. The deviations in effective concentration for the respective cancer cell lines from the mean effective drug concentration for the 39 cancer cell lines subjected to measurement are calculated and shown in the form a fingerprint.

[6] = system: melanoma cell line LOX-IMVI; assay: as above; type: cell-based; settings: 2 days of cultivation, read-out: 50% inhibitory concentration, proliferation
Text: as §5, §6, §7

T1 sequence (Q13547 whole entry): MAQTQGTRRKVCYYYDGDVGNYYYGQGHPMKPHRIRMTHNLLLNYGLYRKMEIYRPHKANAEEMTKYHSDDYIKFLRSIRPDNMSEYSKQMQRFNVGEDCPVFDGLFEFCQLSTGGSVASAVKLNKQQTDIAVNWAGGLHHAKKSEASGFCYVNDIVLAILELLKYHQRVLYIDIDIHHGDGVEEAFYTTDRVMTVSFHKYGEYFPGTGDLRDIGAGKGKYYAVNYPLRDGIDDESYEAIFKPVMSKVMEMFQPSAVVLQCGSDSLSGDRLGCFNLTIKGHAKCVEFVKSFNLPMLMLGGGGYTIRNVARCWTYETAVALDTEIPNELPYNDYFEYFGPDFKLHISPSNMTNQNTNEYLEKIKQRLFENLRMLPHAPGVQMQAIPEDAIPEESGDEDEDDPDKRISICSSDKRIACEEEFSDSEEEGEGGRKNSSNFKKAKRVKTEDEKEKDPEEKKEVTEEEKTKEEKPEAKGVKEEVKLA
T3 sequence (P56524 whole entry): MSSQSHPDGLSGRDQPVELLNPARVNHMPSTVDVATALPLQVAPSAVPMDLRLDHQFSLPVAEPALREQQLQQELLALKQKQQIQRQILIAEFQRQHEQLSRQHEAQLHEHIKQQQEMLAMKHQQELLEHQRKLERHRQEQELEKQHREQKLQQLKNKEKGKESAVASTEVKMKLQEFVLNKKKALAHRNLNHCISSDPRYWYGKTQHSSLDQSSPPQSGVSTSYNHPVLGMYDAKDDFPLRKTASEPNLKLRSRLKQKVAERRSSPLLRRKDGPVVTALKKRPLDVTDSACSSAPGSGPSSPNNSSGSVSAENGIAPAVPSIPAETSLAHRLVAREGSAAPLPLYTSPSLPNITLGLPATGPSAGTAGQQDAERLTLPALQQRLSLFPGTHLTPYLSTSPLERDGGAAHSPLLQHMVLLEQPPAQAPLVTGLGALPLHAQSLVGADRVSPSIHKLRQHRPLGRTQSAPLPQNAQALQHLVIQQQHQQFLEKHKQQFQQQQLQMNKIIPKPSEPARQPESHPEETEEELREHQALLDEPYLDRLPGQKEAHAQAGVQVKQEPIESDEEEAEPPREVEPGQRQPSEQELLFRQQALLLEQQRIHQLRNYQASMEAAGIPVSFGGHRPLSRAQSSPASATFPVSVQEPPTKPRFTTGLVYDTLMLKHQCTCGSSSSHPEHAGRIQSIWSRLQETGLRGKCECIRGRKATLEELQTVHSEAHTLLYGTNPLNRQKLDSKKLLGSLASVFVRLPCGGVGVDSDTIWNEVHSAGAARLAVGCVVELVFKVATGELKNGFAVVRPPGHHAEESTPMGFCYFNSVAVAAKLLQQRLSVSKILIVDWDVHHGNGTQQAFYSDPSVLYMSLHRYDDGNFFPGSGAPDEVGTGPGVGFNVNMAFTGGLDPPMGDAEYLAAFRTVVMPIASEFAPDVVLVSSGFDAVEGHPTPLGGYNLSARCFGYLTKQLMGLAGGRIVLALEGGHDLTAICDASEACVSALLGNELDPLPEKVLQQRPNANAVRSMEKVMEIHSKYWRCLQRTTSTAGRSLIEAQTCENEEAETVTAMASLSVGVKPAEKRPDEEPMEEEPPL
T3 sequence (O15379 whole entry, further chain): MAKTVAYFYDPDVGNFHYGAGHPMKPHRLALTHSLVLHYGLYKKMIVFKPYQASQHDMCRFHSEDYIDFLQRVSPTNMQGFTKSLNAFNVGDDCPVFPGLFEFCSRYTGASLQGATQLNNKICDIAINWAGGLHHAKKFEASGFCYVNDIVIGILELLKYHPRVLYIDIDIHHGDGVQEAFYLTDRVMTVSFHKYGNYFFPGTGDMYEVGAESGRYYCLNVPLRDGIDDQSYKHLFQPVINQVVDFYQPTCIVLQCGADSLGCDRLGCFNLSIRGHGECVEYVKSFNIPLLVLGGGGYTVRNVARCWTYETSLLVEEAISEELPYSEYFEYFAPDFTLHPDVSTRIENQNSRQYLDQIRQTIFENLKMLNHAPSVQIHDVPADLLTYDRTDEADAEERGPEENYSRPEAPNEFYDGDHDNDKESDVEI

Row | Compound | IC50 [1] [nM] | IC50 [2] [µM] | IC50 [3] [nM] | IC50 [5] [nM] | IC50 [6] [nM] | p21 promoter activity EC1000 [4] [µM]
1 | CC(=O)COCCCCC[C@@H]1NC(=O)[C@H]2CCCN2C(=O)[C@H](Cc2ccccc2)NC(=O)C(C)(C)NC1=O [Ky-74, cyclo(-L-Ah7(acetonyl)-Aib-L-Phe-D-Pro-)] | > 100000 | > 100 | > 100000 | – | – | >250
2 | CC1(C)NC(=O)[C@H](CCCCCC(=O)COCC(F)(F)F)NC(=O)[C@H]2CCCN2C(=O)[C@H](Cc2ccccc2)NC1=O [Ky-60, cyclo(-L-Ae9(Tfemk)-Aib-L-Phe-D-Pro-)] | 370 | > 100 | 460 | – | – | 0.85
3 | COCC(=O)CSCCCCC[C@@H]1NC(=O)[C@H]2CCCN2C(=O)[C@H](Cc2ccccc2)NC(=O)C(C)(C)NC1=O [Ky-85, cyclo(-L-Am7(methoxyacetonyl)-Aib-L-Phe-D-Pro-)] | 130 | 1.2 | 77 | – | – | 0.48
4 | CC1(C)NC(=O)[C@H](CCCCCCSCC(=O)C(F)(F)F)NC(=O)[C@H]2CCCN2C(=O)[C@H](Cc2ccccc2)NC1=O [Ky-73, cyclo(-L-Am8(1,1,1-trifluoroacetonyl)-Aib-L-Phe-D-Pro-)] | 1100 | 26.4 | 460 | – | – | 3.7

Further lines, with some results ahead:

Row | IC50 [1] [nM] | IC50 [2] [µM] | IC50 [3] [nM] | IC50 [5] [nM] | IC50 [6] [nM] | Compound | p21 promoter activity EC1000 [4] [µM]
5 | – | – | 28 | ≤ 100 | ≤ 100 | COCC(=O)CCCCC[C@@H]1NC(=O)[C@H]2CCCN2C(=O)[C@H](Cc2ccccc2)NC(=O)C(C)(C)NC1=O [Ky-9, cyclo(-L-Ae9(Mmk)-Aib-L-Phe-D-Pro-)] | 0.043
6 | 20000 | > 100 | 17900 | – | – | CN(C)CC(=O)CCCCC[C@@H]1NC(=O)[C@H]2CCCN2C(=O)[C@H](Cc2ccccc2)NC(=O)C(C)(C)NC1=O [Ky-14, cyclo(-L-Ae9(Dmamk)-Aib-L-Phe-D-Pro-)] | 2.4
7 | 110 | 40.5 | 74 | – | – | CSCC(=O)CCCCC[C@@H]1NC(=O)[C@H]2CCCN2C(=O)[C@H](Cc2ccccc2)NC(=O)C(C)(C)NC1=O [Ky-13, cyclo(-L-Ae9(Mtmk)-Aib-L-Phe-D-Pro-)] | 0.13
